Measured values from patent US20240325435A1, “METHODS OF USING COMPOUND OF GLYCOSAMINOGLYCAN” (Holy Stone Healthcare Co., Ltd., priority 2013, published 2024).

How the values were obtained:
Raw 264.7 cells [1] = experiment: In vitro anti-inflammatory effect, PGE2 amount in LPS-treated Raw 264.7 cells; type: cell-based; settings: 4 hours
Experimental: Raw 264.7 cells (1×10^6 cells/well, 1000 μL) were incubated in a 24-well culture plate in the presence of 5% CO2 at 37° C. for 24 hours. • 2. […] Cell media were collected, and used for measuring PGE2. • 4. Nunc-Immuno 96-well plates were coated with goat polyclonal anti-mouse IgG secondary antibody. • 5. Aliquots of cell media were added to the immune plate with primary PGE2 monoclonal antibody and a tracer PGE2-acetylcholinesterase overnight at room temperature in the dark. • 6. The next day, the wells were aspirated, washed with 100 μL wash buffer (Cayman Chemical, Ann Arbor, MI, USA) five times. • 7. 200 μL of Elman's reagent was added in each well, and incubated 60-90 minutes at room temperature out of direct light. • 8. Gentle rotating/shaking was used to decrease the time required for color development. • 9. Absorbance was read at 412 nm. • 10. The PGE2 concentration of each sample was calculated from a PGE2 standard curve. • 11. The PGE2 amount percentage was as a function of the PGE2 level of each sample divided by the one of the control group which was LPS-treated, then multiplied this value by 100. • 12. […]
Raw 264.7 cells (1×10^6 cells/well, 1000 μL) were incubated in a 24-well culture plate in the presence of 5% CO2 at 37° C. for 24 hours. • 2. […] Absorbance was read at 412 nm. • 10. The PGE2 concentration of each sample was calculated from a PGE2 standard curve. • 11. […]

[2] = system: Adjuvant-Induced Arthritis (AIA); experiment: Adjuvant-Induced Arthritis (rheumatoid arthritis) treatment effect in rats; type: in vivo, Sprague-Dawely rats; settings: intravenous injection at day 14, 10 mg/kg
Experimental: • 1. Thirty of eight weeks male Sprague-Dawely rats (BioLASCO Taiwan Co., Ltd.) were prepared. Rats were divided into 4 groups randomly (n=9 for vehicle and Prednisolone group, n=6 for HA-ADH-Prednisolone and HA group). Every two rats were placed into one cage in rodent animal facility in Institute of Taiwan Animal Technology. • 2. Inject 0.1 mL of CFA (Complete Freund's Adjuvant, 10 mg/mL, Chondrex Inc.) containing 10 mg/mL of heat-killed mycobacterium into subcutaneously at a footpad of right hind limb. • 3. The needle should be inserted just under the skin of the footpad pointing toward the ankle: this maximizes delivery of the adjuvant to the draining popliteal lymph nodes. • 4. Severe and acute inflammation is observed within 30 minutes of injection, peaks within 3 to 4 days, and often persists for 20 to 25 days. • 5. Rat were treated at day 14 after induction of the Adjuvant-Induced Arthritis (AIA) by intravenous injection of Prednisolone or HA-Prednisolone (both 10 mg/kg), or saline as a control. • 6. Rats were sacrificed at day 20 after treatment and tissues were isolated hereafter.
• Paw thickness and Ankle circumference: Paw thickness determined by measuring paw diameter using a caliper, such as Mitsutoyo digimatic caliper. Ankle circumference determined by measuring 2 perpendicular diameters, the latero-lateral diameter (a) and the anteroposterior diameter (b), with a digital caliper and using the following formula: […]

Raw 264.7 cells [3] = experiment: In vitro anti-inflammatory effect, nitrite by Griess reaction in LPS-treated Raw 264.7 cells; type: cell-based; settings: 10 μM Budesonide equivalent, 378 μg/ml HA, 4 hours, then 1 μg/mL LPS 24 hours
Experimental: • 1. Raw 264.7 cells were suspended in culture medium without phenol red (Gibco-BRL, Vienna, Austria) and adjusted to 10^6/ml, and treated with 10 μM Budesonide, 378 μg/ml HA and HA-ADH-Budesonide (equal to 10 μM Budesonide). • 2. After treatment with drugs for 4 hours, 1 μg/mL LPS was added into medium for 24 hours. • 3. Cells treated with medium only served as a negative control group and treated with LPS (1 μg/mL) as a positive control group. • 4. The culture supernatants were removed subsequently and the nitric oxide were accumulated for the measurement of iNOS activity by the Griess-reaction. • 5. 100 μl Griess reagent (1% sulfanilamide, 0.1% naphthlethylenediamine dihydrochloride in 2.5% phosphoric acid) was added into 100 μl culture supernatant and the color development was assessed at 550 nm with a ELISA microplate reader (SpectraMax® M2e Multimode Plate Reader, Molecular Devices, USA). • 6. Standard curves were generated with a serial dilution of sodium nitrite dissolved in culture medium which is phenol red free. […] The inflammation index herein is nitrite.

With `CC(C)(C(=O)O)c1ccc(C(O)CCCN2CCC(C(O)(c3ccccc3)c3ccccc3)CC2)cc1` (stereo not drawn) [Fexofenadine] the “anti-inflammation effect, change percentage of PGE2 amount (FIG. 8)” value (Raw 264.7 cells [1]; 100 μM Fexofenadine or equivalent, then 1 μg/mL LPS 24 h) was “has treatment effect”.
For `C[C@]12C=CC(=O)C=C1CC[C@@H]1[C@@H]2[C@@H](O)C[C@@]2(C)[C@H]1CC[C@]2(O)C(=O)CO` [Prednisolone], the “anti-inflammation effect, change percentage of PGE2 amount (FIG. 10)” value (Raw 264.7 cells [1]; 86.7 μM Prednisolone or equivalent, then 1 μg/mL LPS 24 hours) was “has treatment effect” and the “treatment effect, change percentage of paw thickness (FIG. 11)” value [2] was “showed the treatment effect”.
For hyaluronic acid [HA], the “anti-inflammation effect, change of nitrite concentration (FIG. 6)” value (Raw 264.7 cells [3]) was “have treatment effect”, the “treatment effect, change percentage of ankle circumference (FIG. 12)” value [2] was “enhance RA symptom” and the “treatment effect, change percentage of paw thickness (FIG. 11)” value [2] was “almost the same trend comparing with control group”.
